Consider eleven compounds from patent US7098333B2, “Pyrrolo[2,3-d]pyrimidine and their use as purinergic receptor antagonists” (Vernalis Research Limited, priority 2001, dated 2006).

Data set [1] deals with human adenosine A2A receptors (Homo sapiens, UniProt P29274). Kind of data set: Binding affinities at hA2A receptors, displacement of [3H]-CGS 21680. Conditions: displacement of radioligand [3H]-CGS 21680, in vitro. Background: Loss of bound radioactivity is the signal in a displacement assay; it reports binding, not function.
The next data set has as its system adenosine A2A receptor. Particulars: cited from earlier work.
For data set [2] the following is noted: cited from earlier work.

pKi: −log10 of the molar value.

Chain of human adenosine A2A receptors (P29274 whole entry): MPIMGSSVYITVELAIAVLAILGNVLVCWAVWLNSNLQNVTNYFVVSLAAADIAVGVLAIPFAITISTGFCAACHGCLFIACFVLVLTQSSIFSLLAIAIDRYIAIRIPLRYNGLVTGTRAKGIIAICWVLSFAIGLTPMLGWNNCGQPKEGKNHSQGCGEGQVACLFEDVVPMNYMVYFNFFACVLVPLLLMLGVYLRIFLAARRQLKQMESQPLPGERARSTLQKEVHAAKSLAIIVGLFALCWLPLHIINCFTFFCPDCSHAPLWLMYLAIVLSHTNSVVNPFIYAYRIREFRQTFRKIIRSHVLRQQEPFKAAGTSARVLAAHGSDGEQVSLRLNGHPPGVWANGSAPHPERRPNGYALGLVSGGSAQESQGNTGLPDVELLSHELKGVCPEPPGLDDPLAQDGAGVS

For orientation: pKi means the negative decadic logarithm of the Ki, by convention in mol/L. One may read the melting point as the temperature, or range, at which the solid turns liquid. Regarding `CN(C)c1nc(-c2ccco2)c2cc[nH]c2n1` [Example 1, N,N-dimethyl-4-(2-furyl)-1H-pyrrolo[2,3-d]pyrimidine-2-amine], the melting point fell in the range of 196.9 to 197.1 °C. This compound also gave a pKi in data set [1] of 7.22.
`Clc1nc(-c2ccco2)c2cc[nH]c2n1` [Example 2, 2-chloro-4-(2-furyl)-1H-pyrrolo[2,3-d]pyrimidine] had a melting point of 265.8 to 266.3 °C.
Same read-out and setting: the figure for `CN(C)c1nc(-c2ccco2)c2ccn(Cc3ccccc3)c2n1` [Example 3, 7-benzyl-N,N-dimethyl-4-(2-furyl)-7H-pyrrolo[2,3-d]pyrimidine-2-amine] is 91.7 to 92.3 °C; for `CN(C)c1nc(-c2ccco2)c2ccn(C(=O)c3ccccc3)c2n1` [Example 5, 7-benzoyl-N,N-dimethyl-4-(2-furyl)-7H-pyrrolo[2,3-d]pyrimidine-2-amine] it is 108.3 to 109.1 °C; for `OC[C@H]1CCCN1c1nc(-c2ccco2)c2cc[nH]c2n1` [Example 6, (2R)-2-(2-hydroxymethylpyrrolidin-1-yl)-4-(2-furyl)-1H-pyrrolo[2,3-d]pyrimidine] it is 174.8 to 175.6 °C.
In the case of `COc1ccc(CNc2nc(-c3ccco3)c3cc[nH]c3n2)cc1OC` [Example 7, N-(3,4-dimethoxybenzyl)-4-(2-furyl)-1H-pyrrolo[2,3-d]pyrimidine-2-amine], the melting point was 154.8 to 154.9 °C.
Take `Nc1nc(-c2ccco2)c2cc[nH]c2n1` [Example 8, 4-(2-furyl)-1H-pyrrolo[2,3-d]pyrimidine-2-amine]: the pKi in data set [1] is 6.57.
Compound `CN(C)c1nc(-c2ccco2)c2ccn(Cc3ccccc3F)c2n1` [Example 11, N,N-dimethyl-7-(2-fluorobenzyl)-4-(2-furyl)-7H-pyrrolo[2,3-d]pyrimidine-2-amine] displayed a melting point of 115.1 to 115.2 °C.
Take `Nc1nc(-c2ccco2)c2ccn(Cc3ccccc3F)c2n1` [Example 13, 7-(2-fluorobenzyl)-4-(2-furyl)-7H-pyrrolo[2,3-d]pyrimidine-2-amine]: the pKi in data set [1] was 7.80.
Regarding `CCCn1c(=O)c2c(nc(/C=C/c3ccc(OC)c(OC)c3)n2C)n(CCC)c1=O` [KF 17837, (E)-8-(3,4-dimethoxystyryl)-1,3-dipropyl-7-methylxanthine], the “anticataleptic effects of a subthreshold dose of L-DOPA plus benserazide” value in the data set on adenosine A2A receptor (combination with L-DOPA plus benserazide) was “potentiated”. The “catalepsy induced by haloperidol and reserpine” value with adenosine A2A receptor (in vivo) is recorded as “reduced”. In addition, the “cataleptic responses induced by intracerebroventricular CGS 21680” value in the data set on adenosine A2A receptor (oral administration) is given as “significantly ameliorated”.
Turning to `Cn1c(=O)c2[nH]cnc2n(C)c1=O` [Theophylline, 1,3-dimethylxanthine], the “mean objective disability scores” value in data set [2] (150 mg/day oral, up to 12 weeks, 15 Parkinsonian patients) is reported as “significant improvements”. In addition, the “patients reporting moderate or marked subjective improvement” value in data set [2] (of 15 Parkinsonian patients, 150 mg/day oral, up to 12 weeks) is 11. The serum theophylline levels in data set [2] (slow release oral preparation 150 mg/day, after one week, 15 Parkinsonian patients) is listed as 4.44 mg/L.
